Activity calls are given as the source filed them.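 How the source made its calls: active means compounds giving half or more protection of infected cells from virus-caused growth loss, again on retest; inactive means the rest.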

Among the data in PubChem BioAssay AID179 (DTP/NCI, 2004) are EC50, IC50 and outcome values, retold here.

The subject of the assay is CEM cells HIV-1 protection, formazan growth assay. Briefly: NCI AIDS Antiviral Assay. Conditions: for IC50: measured here: growth of uninfected CEM cells. Summed up: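 Screen of anti-HIV-1 activity in human CEM cells using a formazan-based growth measurement at five drug concentrations. Hits with 50% or greater protection were repeated, and confirmation required reproducible complete protection.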

The term EC50 denotes the concentration needed to bring the measured effect to its halfway point. As usually defined, the IC50 is the concentration at which inhibition is half-maximal. High values mean weaker potency in that assay, low ones greater potency in that assay. As for `CC1(C)O[C@@H]2[C@@H](COC(C)(C)O[C@H]2C2SCCCS2)O1`, the EC50 was more than 200 µM and the IC50 was more than 200 µM. For the molecule `O=c1oc2ccccc2c(O)c1C(c1ccc(OCc2ccccc2)cc1)c1c(O)c2ccccc2oc1=O`, the EC50 is more than 200 µM and the IC50 came to 30.2 µM. The corresponding values for `COC(=O)C1CCCN1C(=O)C(Cc1cn(S(=O)(=O)c2ccc(C)cc2)cn1)NC(=O)OC(C)(C)C` (stereo not drawn) are more than 200 µM and more than 200 µM. The corresponding values for `CC(Oc1ccc(OCC2CCCCC2)cc1)C(=O)O` (stereo not drawn) are more than 468 µM and 457 µM. The like results for `CNC(=S)N/N=C(\C)c1ccc(OC)cc1O` were, in that order, more than 200 µM and 13.8 µM. For the molecule `CCSCCCN(CCCSCC)CCCSCC`, the EC50 was more than 155 µM and the IC50 was more than 155 µM. For the molecule `Nc1ccc(/C=C/c2ccnc3ccccc23)cc1`, the EC50 was 19.5 µM and the IC50 was more than 200 µM. The corresponding values for `O=C(NCCOC(=O)CCCCCCCCC(=O)OCCNC(=O)NC(=O)c1cn(Cc2ccccc2)c(=O)[nH]c1=O)NC(=O)c1cn(Cc2ccccc2)c(=O)[nH]c1=O` are more than 43.7 µM and more than 43.7 µM. Turning to `COc1ccc(NC(=O)CC2SC(=Nc3ccc(Cl)cc3C)NC2=O)c([N+](=O)[O-])c1` (stereo not drawn), the EC50 was more than 398 µM and the IC50 is more than 398 µM. For the molecule `N#CC(NNC(=O)Cc1ccccc1)c1ccc([N+](=O)[O-])cc1` (stereo not drawn), the EC50 was more than 115 µM and the IC50 was more than 115 µM. On to `CCOC(=O)c1ccc(Nc2nc3cc(C(F)(F)F)ccc3nc2C(=O)OCC)cc1`, for which the EC50 is more than 200 µM and the IC50 was 83.2 µM. The like results for `Cc1nc2ccccc2c(=O)n1/N=C/c1ccc(N(C)C)cc1` were, in that order, more than 200 µM and more than 200 µM. The like results for `Nc1nc2c(c(=O)[nH]1)N1CN(c3ccc(C(=O)NC(CCC(=O)O)C(=O)O)cc3)CCC1CN2` (stereo not drawn) were, in that order, more than 347 µM and 60.3 µM. The corresponding values for `CCCC(=O)NC(NC1CCCCC1)(C(=O)OCC)C(F)(F)F` (stereo not drawn) are 191 µM and more than 200 µM. In the case of `CCOC(=O)C1Sc2c(c(=O)n(C)c3ccccc23)C1=O` (stereo not drawn), the EC50 was more than 16.6 µM and the IC50 turned out to be 12 µM. With `C[C@]12CC[C@H](O)CC1=CC[C@@H]1[C@@H]2CC[C@]2(C)C(=O)CC[C@@H]12`, the EC50 was more than 126 µM and the IC50 turned out to be 83.2 µM. The corresponding values for `Cc1ccc(N=Nc2ccc(O)c(CN(C)C)c2)cc1C` are more than 200 µM and 17.4 µM.

Consider `CN(C)c1ccc(N=Nc2ccc(/C=C/c3ccnc4ccccc34)cc2)cc1`, for which the EC50 was more than 19.1 µM and the IC50 is more than 19.1 µM. Take `COc1ccc(NC2Oc3cc4c(cc3C(c3cc(OC)c(OC)c(OC)c3)C2C)OCO4)cc1` (stereo not drawn): the EC50 is more than 20 µM and the IC50 came out at 0.398 µM. The corresponding values for `O=C1/C(=C/c2ccc3c(c2)OCO3)SC2C=Nc3ccccc3N12` (stereo not drawn) are more than 2.24 µM and more than 2.24 µM. In the case of `CC(=O)N(CCN)CCN`, the outcome was inactive. As to `C[C@]12CCC(=O)C=C1CC[C@@H]1[C@@H]2C(=O)C[C@@]2(C)[C@H]1CC[C@]2(O)C(=O)CO`, the EC50 is more than 200 µM and the IC50 was more than 200 µM. For `COC(=O)Nc1nc2ccc(SC)cc2c(=O)[nH]1`, the EC50 is more than 355 µM and the IC50 was found to be 12.6 µM. The like results for `Cc1ccc([N+](=O)[O-])cc1/C(C#N)=C/c1ccccc1` were, in that order, more than 200 µM and 33.1 µM. As for `COc1ccc(/C=N/NS(=O)(=O)c2ccccc2)cc1`, the outcome was inactive.

`COc1ccc(C2Nc3cc(Cl)ccc3NC3=C2C(=O)CC(C)(C)C3)cc1` (stereo not drawn): the EC50 was more than 200 µM and the IC50 came to 83.2 µM. The corresponding values for `O=C1/C(=C/c2ccc(Cl)cc2)CSC/C1=C\c1ccc(Cl)cc1` are more than 200 µM and 2.63 µM. The like results for `Cc1cc(NS(=O)(=O)c2ccc(Nc3c4ccccc4nc4c(C(=O)Nc5ccc(S(=O)(=O)O)cc5)cccc34)cc2)no1` were, in that order, 123 µM and more than 200 µM. In the case of `CC1=C(C(=O)Nc2ccccc2C)C(/C=C/c2ccccc2)C(C(=O)Nc2ccccc2C)=C(C)N1`, the outcome was inactive. As for `CCCCCCC(CCl)c1sc(-c2csc(CCNC(=O)OC(C)(C)C)n2)nc1C(=O)OC` (stereo not drawn), the EC50 is more than 200 µM and the IC50 was more than 200 µM. With `Cn1cc(-c2ccc(CCOC3CCCCO3)cc2)c2c(C#N)cccc21` (stereo not drawn), the EC50 is more than 200 µM and the IC50 amounted to 38.9 µM. In the case of `C#CC1(O)CCCCCCCCC2(CCCCCCCC1)OCCO2`, the EC50 is more than 200 µM and the IC50 came to 25.7 µM. The like results for `CCOC(=O)c1ccc(OCc2nc3cc(C(F)(F)F)ccc3nc2-c2ccccc2)cc1` were, in that order, more than 200 µM and 87.1 µM. Regarding `Cn1c(=O)c2ccccc2c2nc3ccccc3nc21`, the result was inactive.

As to `O=C1OC(c2cccc3c(F)cccc23)c2ccccc21` (stereo not drawn), the outcome was inactive. Consider `Cc1ccc(C2=C(c3ccccc3)C(O)(c3ccccc3)C(c3ccccc3)=C2c2ccc(C)cc2)cc1`, for which the EC50 is more than 7.76 µM and the IC50 was more than 7.76 µM. In the case of `COC(=O)C(C)(C)C(OP(=S)(N(C)C)N(C)C)=C(C)C`, the EC50 was more than 22.4 µM and the IC50 is more than 22.4 µM.

`O=C(/C=C\c1ccc(Cl)c(Cl)c1)c1cccs1`: the EC50 is more than 200 µM and the IC50 worked out at 10.2 µM. The like results for `CCN(CC)CCCCCCNc1cc(C)cc2cccnc12` were, in that order, more than 200 µM and 20.9 µM.

Consider `Cc1ccnc2c1C(=O)C(=O)C=C2N(C)C`, for which the result was inactive.

With `CC12CCC(=O)N1c1cncnc1N2` (stereo not drawn), the EC50 was more than 1320 µM and the IC50 was more than 1320 µM.

Regarding `[N-]=[N+]=NC(=O)c1ccc(S(=O)(=O)c2ccc(F)cc2)cc1`, the result was inactive.

On to `O=S(=O)(c1ccc(I)cc1)c1ccc(I)cc1`, for which the result was inactive. For `N#Cc1nc(CCN2C(=O)c3ccccc3C2=O)oc1N`, the EC50 is more than 200 µM and the IC50 was more than 200 µM. For `CN(C(=O)C12C3C4C1C1C2C3C41C(=O)N(C)C(C)(C)C)C(C)(C)C` (stereo not drawn), the EC50 was more than 30.2 µM and the IC50 was more than 30.2 µM.

As for `CCOC(=O)[C@H]1C[C@@H](C(=O)c2ccccc2)N2N=C(c3ccc(Br)cc3)C=C[C@H]12`, the EC50 was more than 100 µM and the IC50 is more than 100 µM. Take `CS(=O)(=O)N(CCC#N)c1ccc(C=O)cc1`: the EC50 was more than 102 µM and the IC50 is more than 102 µM.

Turning to `C=C(C)C(C(=O)OC(c1ccccc1)c1ccccc1)N1C(=O)C(NC(=O)COc2ccccc2)C1SSc1nc2ccccc2s1` (stereo not drawn), the EC50 is more than 200 µM and the IC50 came out at 8.32 µM. The like results for `COC(=O)CC1(C(=O)OC)Nc2cc(Cl)c(Cl)cc2S(=O)(=O)N1O` (stereo not drawn) were, in that order, 69.2 µM and 91.2 µM. On to `COc1ccccc1NC(=O)/C(C=NC(=S)c1ccncc1)=C(\C)O`, for which the result was inactive.

Turning to `CC1CCC2(NC1)OC1CC3[C@@H]4CC=C5C=CCC[C@]5(C)C4CC[C@]3(C)C1C2C` (stereo partly drawn), the EC50 is more than 9.55 µM and the IC50 is more than 9.55 µM. Regarding `CC(NC(=O)C(C)C(=O)NCc1ccc(C(F)(F)F)cc1)C(N)=O` (stereo not drawn), the EC50 is more than 200 µM and the IC50 amounted to 115 µM. `O=C(O)c1cc(CCc2cc(O)ccc2O)ccc1O`: the EC50 is more than 182 µM and the IC50 worked out at 28.8 µM.

For `C=CCCCCOC1C=CC(OC(C)=O)C(COC(C)=O)O1` (stereo not drawn), the EC50 is more than 200 µM and the IC50 is more than 200 µM. For the molecule `C=C(C)COC(=O)C1CC2OC2CC1C(=O)OCC(=C)C` (stereo not drawn), the EC50 was more than 200 µM and the IC50 turned out to be 166 µM.

Consider `CC(C)CCC[C@@H](C)C1CCC2C3CCC4C[C@@](O)(C(c5cc(Cl)c(O)c(C(=O)O)c5)c5cc(Cl)c(O)c(C(=O)O)c5)CC[C@]4(C)C3CC[C@@]21C` (stereo partly drawn), for which the EC50 was more than 200 µM and the IC50 turned out to be 25.1 µM.

For the molecule `CNC1=CC(=O)C2=C(C1=O)[C@H]1CC[C@]3(C)C(=O)CC[C@H]3[C@@H]1CC2`, the EC50 was more than 200 µM and the IC50 turned out to be 30.2 µM. With `Cc1nc2c(ccc3ncccc32)[nH]1`, the result was inactive. Consider `Cc1nc2ccc(Br)cc2c(=O)n1-c1ccc(N)cc1`, for which the EC50 was more than 200 µM and the IC50 is more than 200 µM. As to `O=C(CCCC[n+]1ccccc1)Sc1ccccc1C(=O)Nc1ccc(S(=O)(=O)c2ccc([N+](=O)[O-])cc2)cc1`, the EC50 was 7.59 µM and the IC50 is 138 µM. Take `CC(=O)n1c(=O)c2cc3c(=O)n(-c4cccc(C#N)c4)c(=O)c3cc2c1=O`: the result was inactive.

Regarding `CC(=O)/C(=C\N1CCNC1=S)C(=O)Nc1ccccc1`, the EC50 is more than 200 µM and the IC50 is more than 200 µM. `Cc1nn(-c2ccc([N+](=O)[O-])cc2)c2c1C(C)(C)C(C#N)=C(N)O2`: the EC50 was more than 200 µM and the IC50 was more than 200 µM. As to `N#CN=C(N)NC(=O)/C=C/C=C/c1ccc(Cl)cc1`, the result was inactive. The same measure, in the same setting: the same measure for `COc1cccc2c1OC(=O)NC2O` (stereo not drawn): “inactive”. In the case of `O=C(c1ccccc1Cl)c1c(O)c2ccccc2oc1=O`, the EC50 was more than 200 µM and the IC50 was more than 200 µM. Regarding `CC(=O)NCCSSCCCCS(=O)O`, the EC50 is more than 200 µM and the IC50 is 3.16 µM. `COc1ccc(NC(=O)CC(=O)N2N=C(N(CCC#N)c3ccccc3Cl)CC2c2ccccc2)cc1` (stereo not drawn): the EC50 is more than 50.1 µM and the IC50 is more than 50.1 µM. Take `O=C(OCCc1ccccc1)c1ccc2cc(O)c(O)cc2c1`: the EC50 is more than 31.6 µM and the IC50 stood at 12.9 µM. For the molecule `NNc1nncc2[nH]cnc12`, the EC50 is more than 200 µM and the IC50 was more than 200 µM. Regarding `O=C(CSc1nc2[nH]ncc2c(=O)[nH]1)c1ccc(Cl)cc1`, the EC50 is more than 200 µM and the IC50 was more than 200 µM. Regarding `CC1OC(OC2C(Oc3c(-c4ccc(O)c(O)c4O)oc4cc(O)ccc4c3=O)OC(CO)C(O)C2O)C(O)C(O)C1O` (stereo not drawn), the EC50 is more than 200 µM and the IC50 is 21.9 µM. The corresponding values for `COc1cc(O)c2c(=O)c3ccccc3n(C)c2c1` are more than 200 µM and 11.2 µM.
